Here are results for 8 compounds from PMC8876931, “Pharmacokinetic, Metabolomic, and Stability Assessment of Ganoderic Acid H Based Triterpenoid Enriched Fraction of Ganoderma lucidum P. Karst” (Metabolites, 2022).

What is called AUC(0-inf) is the area under the concentration-time curve extrapolated to infinity. The AUC(0-t) is the area under the concentration-time curve up to a stated or last time point. What is called half-life is the time needed for the level to fall by half in the phase considered.

Data set [1] can be described thus: In vivo pattern recognition of TEF: UPLC–MS metabolic profiling of blood after oral administration. On the set-up: species or system rats. Particulars: for bioavailability (absorbed in systemic circulation) of TEF constituent: after oral administration of TEF to rats, in words; for Metabolites Pattern in TEF and Blood (Abundance): UPLC–MS abundance of mass. Here is the method: For in vivo pattern recognition of TEF, it was orally administered to rats. After its oral administration, blood samples were collected at different time intervals. Prepared plasma samples of pharmacokinetic analysis (0.5, 1, 3, 6, 12, 24, 48, and 72 h) were used for this study. Samples were analyzed by ultra-performance liquid chromatography–mass spectrometry (UPLC–MS) analysis. The UPLC–MS was performed on Water’s ACQUITY UPLCTM system (Waters Corp., Milford, MA, USA) equipped with a binary solvent delivery system, an autosampler, column manager, and a tunable MS detector (Synapt; Waters, Manchester, UK). Chromatographic separation was performed on a Water’s ACQUITY UPLC^TM BEH C18 (100.0 × 2.1 mm × 1.7 μm) column. The mobile phase used for chromatographic separation was 0.05% (v/v) formic acid in water (A) and 0.05% (v/v) formic acid in acetonitrile (B). […] The flow rate of mobile phase was 0.5 mL/min, and column temperature was set at 25 °C throughout the run time. The mass spectrometry was performed on a quadrupole orthogonal acceleration time of flight tandem mass spectrometer (Waters Q-TOF, Manchester, UK). The nebulizer gas was set to 500 L/h, the cone gas was set to 50 L/h, and the source temperature was set to 100 °C. The capillary voltage was set to 3.0 kV, and the sample cone voltage was set to […]. Argon was employed as the collision gas at a pressure of 5.3 × 10^−5 Torr. The Q-TOF was operated in positive mode with […] and 0.02 s inter-scan delay. The accurate mass and composition for the precursor ions and the fragment ions were calculated by using MassLynx v 4.1 software incorporated with the instrument. Compounds were tentatively identified from database by comparing their reported m/z values with experimental values. Focus was given to the mass ranges from 130 to 600 m/z for lanosterol type triterpenoids and general terpene hydrocarbon. The databases used for identification of compounds were MassBank and HMDB.
Metabolomic comparison was performed with respect to analysis of TEF. For that, dried TEF was dissolved in LC–MS grade methanol and analyzed with same conditions used for plasma sample analysis. […] This metabolomic analysis was based on metabolites absorbed in blood after oral administration.

Data set [2] concerns breast cancer cells. On the set-up: method as in PMID 18425349. The following applies: by modulating AP-1 and NF-κB signaling; cited from earlier work.
Data set [3] is described as follows: Pharmacokinetic analysis of TEF in terms of GA-H after oral administration to rats (HPLC of plasma and urine). More on the design: rate of elimination (Kel): unit not given here. Format: in vivo, Albino Wistar rats. Here is the method: Alliance HPLC system (e2695 Separation module, Waters, Milford, MA, USA) with a gradient pump integrated with adjustable wavelength programmable photodiode array detector (PDA) was employed for analysis. Chromatographic separation was executed on Hupersil […] C18 (ODS) column (150 × 4.6 mm, Phenomenex, Torrance, CA, USA), using mobile phase composed of 0.5% v/v formic acid in water (A) and methanol (B). Solvents were eluted at a flow rate of 1.0 mL/min in gradient elution program (initially 100% A, 0–5 min 90% A, 5–10 min 70% A, 10–15 min 30% A, 15–20 min 2% A, and 20–22 min 100% A). Detection was carried out in a scanning mode with 3D channel at a wavelength of 254 nm. Total run time was 25 min. The identity of the compounds was established by comparing retention time of analytical standards. The proposed developed method was further validated as per the AOAC guidelines.
Albino Wistar rats (8 weeks old, 180 ± 20 g) were obtained from the Central Animal House Facility of Jamia Hamdard. Animal housing and handling were executed in accordance with the Good Laboratory Practice (GLP) mentioned in CPCSEA guidelines. All experimental protocols were reviewed and approved by the Institutional Animal Ethics Committee (Registration No 173/GO/RE/S/2000/CPCSEA; approval number 1472). All animals were housed in polypropylene cages (not more than three animals per cage) with proper water and feed and were allowed to acclimatize with specified conditions (25 ± 3 °C and 60 ± 5%RH) for a week before the experiment. […] After oral administration, blood samples were collected from retro-orbital plexus by using heparinized capillaries at 0 (pre-dose), 0.5, 1, 1.5, 2, 4, 6, 8, 10, 12, 16, 24, and 30 h. Blood samples were collected in EDTA tubes and centrifuged at 7000 rpm to get plasma. The separated plasma was stored at −60 °C until analysis. […] The collected urine from each animal was pooled for analysis.
Liquid–liquid extraction was used for extraction of GA-H from plasma. In 100 µL of plasma, 500 µL of ice-cold methanol was added, vortexed, and incubated at −60 °C for 8 h. After incubation, it was brought to room temperature and centrifuged at 10,000 rpm for 10 min. The supernatant was separated and dried by passing […]. The dried extract was re-suspended with 100 μL of LC–MS grade methanol, sonicated for 10 min, centrifuged at 14,000 rpm for 10 min, supernatant separated, and then transferred into sample vials having insert for analysis. Similar sample preparation protocol and storage conditions were used for urine through liquid–liquid extraction.
The maximum plasma concentration (Cmax) and time to attain maximum concentration (Tmax) were directly assessed by plasma concentration–time graph. Other pharmacokinetic parameters, such as AUC, AUC0–t, AUC0–∞, half-life (t1/2), elimination rate constant (Kel), and volume of distribution (Vd), were calculated from plasma concentration vs. time profile response curve by non-compartmental analysis, using software Pkf Excel plug-in program.

Where [4] appears, read: blood 3 h after oral TEF to rats.
[5] abbreviates: blood 6 h after oral TEF to rats.
Where [6] appears, read: blood 12 h after oral TEF to rats.
[7] abbreviates: blood 24 h after oral TEF to rats.
Setting [8] is: blood 48 h after oral TEF to rats.
Setting [9] is: blood 72 h after oral TEF to rats.
Setting [10] is: blood 1 h after oral TEF to rats.
Where [11] appears, read: Albino Wistar, rat, plasma, po, 85 mg/kg.
[12] abbreviates: GA-H in rat plasma after oral TEF 85 mg/Kg.
The mark [13] stands for this setting: GA-H, rats, oral TEF 85 mg/Kg, non-compartmental analysis.
Setting [14] is: blood 0.5 h after oral TEF to rats.

Turning to `CC(C)CCCCCCCCCCCC(=O)O` [13-methylmyristic acid], the “bioavailability (absorbed in systemic circulation) of TEF constituent” value (shortened to “bioavailability”) in data set [1] is on record as “bioavailable”. Also, the “Metabolites Pattern in TEF and Blood (Abundance)” value (shortened to “Metabolites Pattern”) in data set [1] (setting [4]) is listed as 23,412; in data set [1] (setting [5]), 25,473; in data set [1] (setting [6]) it was 21,675; in data set [1] (setting [7]), 16,734; in data set [1] (setting [8]), 9835; in data set [1] (setting [9]), 5642.
For `NC(=O)CC[C@H](N=C/C=C1/C=C(C(=O)O)N[C@H](C(=O)O)C1)C(=O)O` [Glutamine-betaxanthin], the “bioavailability” value in data set [1] is recorded as “absorbed in the systemic circulation”.
As to `CCCCC/C=C\C/C=C\CCCCCCCC(=O)O` [Linoleic acid], in data set [1], the “bioavailability” value was “bioavailable”. In addition, the “Metabolites Pattern” value in data set [1] (setting [4]) was 23,451; in data set [1] (setting [5]) it was 21,543; in data set [1] (setting [6]), 18,756; in data set [1] (setting [7]), 12,112; in data set [1] (setting [8]), 8453; in data set [1] (setting [9]), 5641.
`CC(CC(=O)C[C@@H](C)[C@H]1CC(=O)[C@@]2(C)C3=C(C(=O)C[C@]12C)[C@@]1(C)CCC(=O)C(C)(C)[C@@H]1C[C@@H]3O)C(=O)O` (some centres unmarked) [Ganoderic acid D]: the “Metabolites Pattern” value in data set [1] (setting [10]) was 36,786; in data set [1] (setting [4]) it was 37,654; in data set [1] (setting [5]) it was 27,689; in data set [1] (setting [6]) it was 26,657; in data set [1] (setting [7]) it was 21,234.
As for `CC(=O)O[C@@H]1C(=O)C2=C(C(=O)C[C@H]3C(C)(C)C(=O)CC[C@]23C)[C@]2(C)C(=O)C[C@H]([C@H](C)CC(=O)CC(C)C(=O)O)[C@@]12C` (some centres unmarked) [GA-F, ganoderic acid F], the “effect on growth and invasive behavior of breast cancer cells” value (shortened to “effect on growth and invasive behavior”) in data set [2] was “suppress the growth and invasive behavior”.
With `C[C@H](CC(=O)C[C@@H](C)[C@H]1C[C@H](O)[C@@]2(C)C3=C(C(=O)C[C@]12C)[C@@]1(C)CCC(=O)C(C)(C)[C@@H]1C[C@@H]3O)C(=O)O` [Ganoderic acid A], the “effect on growth and invasive behavior” value in data set [2] was “suppress the growth and invasive behavior”. For the same compound, the “bioavailability” value in data set [1] is recorded as “bioavailable”. For the same compound, the “Metabolites Pattern” value is reported as 45,647 in data set [1] (setting [10]); 37,652 in data set [1] (setting [4]); 29,143 in data set [1] (setting [5]); 22,987 in data set [1] (setting [6]); 21,548 in data set [1] (setting [7]).
In the case of `CC(=O)O[C@@H]1C(=O)C2=C(C(=O)C[C@H]3C(C)(C)[C@@H](O)CC[C@]23C)[C@]2(C)C(=O)C[C@H]([C@H](C)CC(=O)CC(C)C(=O)O)[C@@]12C` (some centres unmarked) [GA-H, ganoderic acid H], the “effect on growth and invasive behavior” value in data set [2] is “suppress the growth and invasive behavior”. In data set [3] (setting [11]), this compound returned a total exposure AUC(0-inf) of 9840 ± 157 ng·h/mL and an AUC(0-t) of 9800 ± 170 ng·h/mL. In addition, the half-life in data set [3] (Albino Wistar, rat, plasma, po, 85 mg/kg, read-out: half-life in blood (converted)) was 13.2 h. The Cmax in data set [3] (Albino Wistar, rat, plasma, po, 85 mg/kg, read-out: maximum plasma concentration (Cmax)) amounted to 2510 ng/mL. In addition, the MRT in data set [3] (Albino Wistar, rat, plasma, po, 85 mg/kg, read-out: mean residence time in blood) was found to be 5.42 h. For the same compound, in data set [3] (setting [12]), the “relative exposure AUC0–∞/D” value amounted to 1968.9 ± 32.5 ng·h/mL/mg, the “relative exposure Cmax/D” value stood at 501.9 ± 25.4 ng/mL/mg and the “time to peak plasma concentration (Tmax)” value is on record as “approximately one”. Also, in data set [3] (GA-H, rats, oral TEF), the “time up to which a quantifiable amount was sustained in plasma” value is “up to 12 h”. Moreover, the “rate of elimination (Kel)” value in data set [3] (GA-H, rats, oral TEF 85 mg/Kg) is 0.05. For the same compound, in data set [3] (setting [13]), the “clearance (CL)” value worked out at 507.9 ± 25.6 mL/h and the “volume of distribution (Vd)” value is reported as 9660.3 ± 111.5 mL. The detection in urine entry in data set [3] (rat urine collected at 4, 12 and 24 h after oral TEF, pooled) is given as “no GA-H was detected”. In data set [1] (setting [14]), the “Metabolites Pattern” value is listed as 35,876. Further, the “Metabolites Pattern” value in data set [1] (setting [10]) is 45,675. Moreover, the “Metabolites Pattern” value in data set [1] (setting [4]) is 54,675. Besides, the “Metabolites Pattern” value in data set [1] (setting [5]) is 32,456. Moreover, the “Metabolites Pattern” value in data set [1] (setting [6]) is on record as 24,978.
`OC[C@H]1OC(c2c(O)cc3c(c2O)C[C@@H](O)[C@@H](c2ccc(O)c(O)c2)O3)[C@H](O)[C@@H](O)[C@@H]1O` (some centres unmarked) [Epicatechin-6-glucoside]: the “bioavailability” value in data set [1] is reported as “bioavailable”. Also, the “Metabolites Pattern” value in data set [1] (setting [14]) is given as 19,876; in data set [1] (setting [10]) it was 36,783; in data set [1] (setting [4]), 25,056; in data set [1] (setting [5]), 26,578; in data set [1] (setting [6]) it was 22,346; in data set [1] (setting [7]), 21,324. The “Metabolites Pattern” value in data set [1] (setting [8]) is reported as 24,569; in data set [1] (setting [9]), 22,345.
